Among the test systems are COLO 205 colon; EKVX NSCLC; HOP-62 NSCLC; IGROV1 ovarian; KM12 colon; OVCAR-4 ovarian; SNB-19 CNS; UACC-257 melanoma; UACC-62 melanoma; NCI-H226 lung.
Experiment in all cases: inhibition of tumour cell growth, NCI panel, 48 h

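Method: 48-hour compound exposure of cells in 96-well plates, five concentrations, linear interpolation of endpoints. GI50 is the concentration that inhibits growth by half. Definition used: TGI = concentration required for complete inhibition of growth.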 Bounds are passed on as bounds.

Among the data in PubChem BioAssay (NCI) are TGI and GI50 values, retold here.

As to `CN(C)CCNC(=O)c1cccc2ccc(-c3ccncc3)nc12`, the TGI in the experiment on COLO 205 colon amounted to 7.26 µM; with EKVX NSCLC it was 13.4 µM; in the experiment on HOP-62 NSCLC, 5.56 µM; with IGROV1 ovarian, 8.37 µM; in the experiment with KM12 colon, 54.3 µM; in the experiment with OVCAR-4 ovarian it was 15 µM. For the same compound, the TGI with SNB-19 CNS amounted to 9.5 µM; with UACC-257 melanoma it was 6.66 µM; in the experiment with UACC-62 melanoma, 3.73 µM.
For `CCOC(=S)SSSC(=S)OCC`, the TGI with COLO 205 colon, in the experiment with EKVX NSCLC, in the experiment with HOP-62 NSCLC, in the experiment on KM12 colon, in the experiment on NCI-H226 lung and in the experiment on SNB-19 CNS was above 100 µM in each case. Besides, the TGI in the experiment on UACC-257 melanoma and with UACC-62 melanoma was above 100 µM throughout.
Turning to `Cc1ccc(NC(=O)CC(=O)n2nc(C)c(N=Nc3ccccc3C(=O)O)c2C)cc1`, the TGI in the experiment on COLO 205 colon, in the experiment with EKVX NSCLC, in the experiment with HOP-62 NSCLC, in the experiment on IGROV1 ovarian, in the experiment with KM12 colon and with OVCAR-4 ovarian was above 100 µM in each case. The TGI in the experiment with SNB-19 CNS, in the experiment with UACC-257 melanoma and in the experiment on UACC-62 melanoma was above 100 µM each time.
Consider `C[N+]1=C(/C=C/c2ccc(O)c3ncccc23)C(C)(C)c2ccccc21`, for which the GI50 in the experiment with COLO 205 colon was 2300 nM; with EKVX NSCLC, 2010 nM; with HOP-62 NSCLC, 3.44 µM; with KM12 colon, 2970 nM; in the experiment with NCI-H226 lung, 3.26 µM; in the experiment with OVCAR-4 ovarian, 3120 nM. Moreover, the GI50 is 3.74 µM with SNB-19 CNS, 3.81 µM with UACC-257 melanoma and 2470 nM in the experiment with UACC-62 melanoma. Besides, the TGI with COLO 205 colon is 6.11 µM; in the experiment with EKVX NSCLC, 7.16 µM; with HOP-62 NSCLC, 14.5 µM; with KM12 colon it was 10.5 µM; with NCI-H226 lung it was 12.9 µM; in the experiment with OVCAR-4 ovarian it was 17.2 µM. In addition, the TGI turned out to be 14.4 µM in the experiment with SNB-19 CNS, 13.5 µM with UACC-257 melanoma and 8.54 µM in the experiment with UACC-62 melanoma.
In the case of `CCCC1N2CCCCC2[C@@H]2c3[nH]c4ccccc4c3CCN12` (stereo not given in full), the TGI with COLO 205 colon, in the experiment on EKVX NSCLC, with HOP-62 NSCLC, in the experiment with IGROV1 ovarian, with OVCAR-4 ovarian and in the experiment with SNB-19 CNS was above 100 µM in each case. Further, the TGI in the experiment on UACC-257 melanoma and in the experiment on UACC-62 melanoma was above 100 µM each time.
With `O=C(O)C(CS)Nc1c2ccccc2nc2ccccc12` (stereo not given), the TGI is above 100 µM in the experiment with COLO 205 colon; above 100 µM with EKVX NSCLC; above 100 µM with IGROV1 ovarian; above 100 µM in the experiment with KM12 colon; above 100 µM with NCI-H226 lung; 47.1 µM with OVCAR-4 ovarian. Moreover, the TGI with SNB-19 CNS and in the experiment with UACC-257 melanoma was above 100 µM each time.
`CCOC(=O)/C(C#N)=C/c1[nH]c(C(=O)OCc2ccccc2)c(C)c1C`: the TGI with COLO 205 colon, in the experiment with EKVX NSCLC, with HOP-62 NSCLC, in the experiment on IGROV1 ovarian, in the experiment with KM12 colon and in the experiment with OVCAR-4 ovarian was above 100 µM each time. In addition, the TGI in the experiment on SNB-19 CNS, with UACC-257 melanoma and in the experiment on UACC-62 melanoma was above 100 µM each time.
Consider `O=C(CC1(O)C(=O)Nc2ccccc21)c1ccncc1` (stereo not given), for which the TGI in the experiment with COLO 205 colon, in the experiment with EKVX NSCLC, in the experiment on IGROV1 ovarian, in the experiment with NCI-H226 lung, in the experiment on OVCAR-4 ovarian and in the experiment on SNB-19 CNS was above 100 µM throughout. In addition, the TGI with UACC-62 melanoma is above 100 µM.
For the compound `O=C(N/C(=C\c1cccc([N+](=O)[O-])c1)c1nc2ccc([N+](=O)[O-])cc2[nH]1)c1ccccc1`, the TGI in the experiment on COLO 205 colon is above 100 µM; in the experiment on EKVX NSCLC it was above 100 µM; in the experiment with IGROV1 ovarian, 74.4 µM; in the experiment with KM12 colon, above 100 µM; in the experiment with OVCAR-4 ovarian it was 66.1 µM; with SNB-19 CNS, above 100 µM. In the experiment on UACC-62 melanoma, the TGI was 46.7 µM.
Consider `Cc1cc(-c2cnn3c(NCC4CC(C)(O)C4)cc(Oc4cccnc4)nc23)ccc1C(=O)NC1CC1` (stereo not given), for which the GI50 with COLO 205 colon is 1060 nM; in the experiment on EKVX NSCLC, 3760 nM; in the experiment with HOP-62 NSCLC it was 8.57 µM; in the experiment on IGROV1 ovarian, 992 nM; in the experiment on NCI-H226 lung it was above 100 µM; in the experiment on SNB-19 CNS, above 60.7 µM. For the same compound, the GI50 in the experiment on UACC-257 melanoma is above 100 µM; in the experiment with UACC-62 melanoma it was 2670 nM. Further, the TGI in the experiment on COLO 205 colon, in the experiment with EKVX NSCLC, with HOP-62 NSCLC, in the experiment with IGROV1 ovarian, in the experiment on NCI-H226 lung and in the experiment on SNB-19 CNS was above 100 µM each time. Besides, the TGI in the experiment with UACC-257 melanoma and with UACC-62 melanoma was above 100 µM throughout.
Regarding `COc1cc(C(=O)CBr)c(OC)cc1C`, the TGI in the experiment on COLO 205 colon, with EKVX NSCLC, in the experiment on HOP-62 NSCLC, in the experiment with IGROV1 ovarian, in the experiment with KM12 colon and with NCI-H226 lung was above 100 µM throughout. Also, the TGI in the experiment on SNB-19 CNS, with UACC-257 melanoma and with UACC-62 melanoma was above 100 µM in each case.
As for `CC1OC(OC2C(OC(=O)[C@]34CCC(C)(C)CC3C3=CCC5[C@@]6(C)C[C@H](O)[C@H](OC7OC(CO)C(O)C(O)C7N)[C@@](C)(C(=O)O)C6CC[C@@]5(C)C3(C)CC4)OCC(O)C2O)C(O)C(O)C1OC1OCC(O)C(O)C1O` (stereo not given in full), the TGI in the experiment on COLO 205 colon, in the experiment with EKVX NSCLC, with HOP-62 NSCLC, with IGROV1 ovarian, with KM12 colon and in the experiment with NCI-H226 lung was above 100 µM throughout. Further, the TGI in the experiment on SNB-19 CNS, in the experiment with UACC-257 melanoma and in the experiment on UACC-62 melanoma was above 100 µM each time.
In the case of `CCC[CH2][Sn]1([CH2]CCC)[O]C(=O)CN=Cc2c(ccc3ccccc23)[O]1`, the GI50 in the experiment on COLO 205 colon was 401 nM; in the experiment on EKVX NSCLC, 552 nM; with HOP-62 NSCLC it was 3.91 µM; in the experiment with IGROV1 ovarian it was 2480 nM; in the experiment with KM12 colon it was 888 nM; in the experiment on OVCAR-4 ovarian it was 1000 nM. Further, the GI50 is 0.229 µM with SNB-19 CNS, 0.0434 µM in the experiment with UACC-257 melanoma and 229 nM with UACC-62 melanoma. In addition, the TGI with COLO 205 colon was 1.47 µM; with EKVX NSCLC, 1.86 µM; in the experiment on HOP-62 NSCLC, above 100 µM; in the experiment with IGROV1 ovarian, above 100 µM; in the experiment with KM12 colon, 2.28 µM; with OVCAR-4 ovarian, 2.19 µM. Further, the TGI with SNB-19 CNS came to 0.526 µM; in the experiment on UACC-257 melanoma, 0.285 µM; with UACC-62 melanoma, 0.558 µM.
